From patent US20170190671A1, “BIS(ARYL)CATECHOL DERIVATIVES AS HERBICIDES” (E I DU PONT DE NEMOURS AND COMPANY, priority 2014, published 2017)

Legend:
Format in all cases: in vivo
[1] = tested on: barnyardgrass (Echinochloa crus-galli); experiment: Test B flooded paddy; details: 250 g ai/ha, Flood, 13 to 15 days, scale 0 (no effect) to 100 (complete control)
Excerpt: (§1) At time of treatment, test pots were flooded to 3 cm above the soil surface, treated by application of test compounds directly to the paddy water, and then maintained at that water depth for the duration of the test. Treated plants and controls were maintained in a greenhouse for 13 to 15 days, after which time all species were compared to controls and visually evaluated. […] A dash (-) response means no test result.

[2] = tested on: ducksalad (Heteranthera limosa); experiment: Test B flooded paddy; details: 250 g ai/ha, Flood, 13 to 15 days, scale 0 (no effect) to 100 (complete control)
Excerpt: as §1

rice (Oryza sativa) = experiment: Test B flooded paddy; details: 250 g ai/ha, Flood, 13 to 15 days, scale 0 (no effect) to 100 (complete control)
Excerpt: as §1

[3] = tested on: sedge, umbrella (small-flower umbrella sedge, Cyperus difformis); experiment: Test B flooded paddy; details: 250 g ai/ha, Flood, 13 to 15 days, scale 0 (no effect) to 100 (complete control)
Excerpt: as §1

[4] = tested on: Italian ryegrass (Lolium multiflorum); experiment: Test A preemergence; details: 0 to 100 scale (0 no effect, 100 complete control)
Excerpt: (§2) Seeds of plant species selected from barnyardgrass (Echinochloa crus-galli), kochia (Kochia scoparia), ragweed (common ragweed, Ambrosia elatior), Italian ryegrass (Lolium multiflorum), large (Lg) crabgrass (Digitaria sanguinalis), giant foxtail (Setaria faberii), morningglory (Ipomoea spp.), pigweed (Amaranthus retroflexus), velvetleaf (Abutilon theophrasti), wheat (Triticum aestivum), and corn (Zea mays) were planted into a blend of loam soil and sand and treated preemergence with a directed soil spray using test chemicals formulated in a non-phytotoxic solvent mixture which included a surfactant.
(§3) At the same time, plants selected from these crop and weed species and also blackgrass (Alopecurus myosuroides), and galium (catchweed bedstraw, Galium aparine) were planted in pots containing the same blend of loam soil and sand and treated with postemergence applications of test chemicals formulated in the same manner. Plants ranged in height from 2 to 10 cm and were in the one- to two-leaf stage for the postemergence treatment. Treated plants and untreated controls were maintained in a greenhouse for approximately 10 days, after which time all treated plants were compared to untreated controls and visually evaluated for injury. Plant response ratings, summarized in Table A, are based on a 0 to 100 scale where 0 is no effect and 100 is complete control. A dash (-) response means no test result.

[5] = tested on: barnyardgrass (Echinochloa crus-galli); experiment: Test A preemergence; details: for Barnyardgrass plant response rating: 31 g ai/ha, 0 to 100 scale (0 no effect, 100 complete control); for Plant response rating, Barnyardgrass: 125 g ai/ha, 0 to 100 scale
Excerpt: as §2, §3

[6] = tested on: giant foxtail (Setaria faberii); experiment: Test A preemergence; details: 0 to 100 scale (0 no effect, 100 complete control)
Excerpt: as §2, §3

kochia (Kochia scoparia) [7] = experiment: Test A preemergence; details: 0 to 100 scale (0 no effect, 100 complete control)
Excerpt: as §2, §3

[8] = tested on: pigweed (Amaranthus retroflexus); experiment: Test A preemergence; details: 0 to 100 scale (0 no effect, 100 complete control)
Excerpt: as §2, §3

[9] = tested on: ragweed (common ragweed, Ambrosia elatior); experiment: Test A preemergence; details: 0 to 100 scale (0 no effect, 100 complete control)
Excerpt: as §2, §3

[10] = tested on: Italian ryegrass (Lolium multiflorum); experiment: Test A postemergence; details: 0 to 100 scale
Excerpt: as §2, §3

[11] = tested on: barnyardgrass (Echinochloa crus-galli); experiment: Test A postemergence; details: 0 to 100 scale
Excerpt: as §2, §3

[12] = tested on: blackgrass (Alopecurus myosuroides); experiment: Test A postemergence; details: 0 to 100 scale
Excerpt: as §2, §3

corn (Zea mays) = experiment: Test A postemergence; details: 0 to 100 scale
Excerpt: as §2, §3

[13] = tested on: galium (catchweed bedstraw, Galium aparine); experiment: Test A postemergence; details: 0 to 100 scale
Excerpt: as §2, §3

[14] = tested on: giant foxtail (Setaria faberii); experiment: Test A postemergence; details: 0 to 100 scale
Excerpt: as §2, §3

kochia (Kochia scoparia) [15] = experiment: Test A postemergence; details: 0 to 100 scale
Excerpt: as §2, §3

[16] = tested on: pigweed (Amaranthus retroflexus); experiment: Test A postemergence; details: 0 to 100 scale
Excerpt: as §2, §3

[17] = tested on: ragweed (common ragweed, Ambrosia elatior); experiment: Test A postemergence; details: 0 to 100 scale
Excerpt: as §2, §3

[18] = tested on: wheat (Triticum aestivum); experiment: Test A postemergence; details: 0 to 100 scale
Excerpt: as §2, §3

N#Cc1cccc(Oc2ncc(Cl)cn2)c1Oc1ccc(C(F)(F)F)nn1 [Compound 26]
Plant response rating, Barnyardgrass [1]: 0
Plant response rating, Ducksalad [2]: 70
Plant response rating, Rice (rice (Oryza sativa)): 0
Plant response rating, Sedge, Umbrella [3]: 60
Ryegrass, Italian plant response rating ([4]; 31 g ai/ha): 0
Ryegrass, Italian plant response rating ([4]; 125 g ai/ha): 0
Barnyardgrass plant response rating [5]: 0
Plant response rating, Barnyardgrass [5]: 20
Foxtail, Giant plant response rating ([6]; 31 g ai/ha): 20
Foxtail, Giant plant response rating ([6]; 125 g ai/ha): 60
Kochia plant response rating (kochia (Kochia scoparia) [7]; 31 g ai/ha): 20
Kochia plant response rating (kochia (Kochia scoparia) [7]; 125 g ai/ha): 30
Pigweed plant response rating ([8]; 31 g ai/ha): 90
Pigweed plant response rating ([8]; 125 g ai/ha): 100
Ragweed plant response rating ([9]; 31 g ai/ha): 0
Ragweed plant response rating ([9]; 125 g ai/ha): 20
Plant response rating, Ryegrass, Italian ([10]; 31 g ai/ha): 0
Plant response rating, Ryegrass, Italian ([10]; 125 g ai/ha): 0
Plant response rating, Barnyardgrass ([11]; 31 g ai/ha): 0
Plant response rating, Barnyardgrass ([11]; 125 g ai/ha): 20
Plant response rating, Blackgrass ([12]; 31 g ai/ha): 0
Plant response rating, Blackgrass ([12]; 125 g ai/ha): 30
Plant response rating, Corn (corn (Zea mays); 31 g ai/ha): 0
Plant response rating, Corn (corn (Zea mays); 125 g ai/ha): 20
Plant response rating, Galium ([13]; 31 g ai/ha): 30
Plant response rating, Galium ([13]; 125 g ai/ha): 50
Plant response rating, Foxtail, Giant ([14]; 31 g ai/ha): 10
Plant response rating, Foxtail, Giant ([14]; 125 g ai/ha): 30
Plant response rating, Kochia (kochia (Kochia scoparia) [15]; 31 g ai/ha): 40
Plant response rating, Kochia (kochia (Kochia scoparia) [15]; 125 g ai/ha): 60
Plant response rating, Pigweed ([16]; 31 g ai/ha): 50
Plant response rating, Pigweed ([16]; 125 g ai/ha): 80
Plant response rating, Ragweed ([17]; 31 g ai/ha): 30
Plant response rating, Ragweed ([17]; 125 g ai/ha): 30
Plant response rating, Wheat ([18]; 31 g ai/ha): 0
Plant response rating, Wheat ([18]; 125 g ai/ha): 10

Fc1ccc(F)c(Oc2ncc(C(F)(F)F)cn2)c1Oc1ncc(C(F)(F)F)cn1 [Compound 30]
Plant response rating, Barnyardgrass [1]: 0
Plant response rating, Ducksalad [2]: 0
Plant response rating, Rice (rice (Oryza sativa)): 0
Plant response rating, Sedge, Umbrella [3]: 0
Ryegrass, Italian plant response rating ([4]; 31 g ai/ha): 0
Ryegrass, Italian plant response rating ([4]; 125 g ai/ha): 0
Barnyardgrass plant response rating [5]: 0
Plant response rating, Barnyardgrass [5]: 10
Foxtail, Giant plant response rating ([6]; 31 g ai/ha): 10
Foxtail, Giant plant response rating ([6]; 125 g ai/ha): 50
Kochia plant response rating (kochia (Kochia scoparia) [7]; 31 g ai/ha): 10
Kochia plant response rating (kochia (Kochia scoparia) [7]; 125 g ai/ha): 20
Pigweed plant response rating ([8]; 31 g ai/ha): 90
Pigweed plant response rating ([8]; 125 g ai/ha): 100
Ragweed plant response rating ([9]; 31 g ai/ha): 0
Ragweed plant response rating ([9]; 125 g ai/ha): 0
Plant response rating, Ryegrass, Italian ([10]; 31 g ai/ha): 0
Plant response rating, Ryegrass, Italian ([10]; 125 g ai/ha): 0
Plant response rating, Barnyardgrass ([11]; 31 g ai/ha): 0
Plant response rating, Barnyardgrass ([11]; 125 g ai/ha): 0
Plant response rating, Blackgrass ([12]; 31 g ai/ha): 0
Plant response rating, Blackgrass ([12]; 125 g ai/ha): 30
Plant response rating, Corn (corn (Zea mays); 31 g ai/ha): 0
Plant response rating, Corn (corn (Zea mays); 125 g ai/ha): 0
Plant response rating, Galium ([13]; 31 g ai/ha): 60
Plant response rating, Galium ([13]; 125 g ai/ha): 70
Plant response rating, Foxtail, Giant ([14]; 31 g ai/ha): 0
Plant response rating, Foxtail, Giant ([14]; 125 g ai/ha): 10
Plant response rating, Kochia (kochia (Kochia scoparia) [15]; 31 g ai/ha): 0
Plant response rating, Kochia (kochia (Kochia scoparia) [15]; 125 g ai/ha): 0
Plant response rating, Pigweed ([16]; 31 g ai/ha): 60
Plant response rating, Pigweed ([16]; 125 g ai/ha): 70
Plant response rating, Ragweed ([17]; 31 g ai/ha): 0
Plant response rating, Ragweed ([17]; 125 g ai/ha): 0
Plant response rating, Wheat ([18]; 31 g ai/ha): 0
Plant response rating, Wheat ([18]; 125 g ai/ha): 0
